# In patent EP0409176B1, “Method and materials for detecting pathology from alterations in estrogen metabolism” (THE ROCKEFELLER UNIVERSITY, priority 1989, dated 1991):
# Key:
# [1] = tested on: 2OHE1 antiserum; experiment: Radioimmunoassay cross-reactivity of the anti-2OHE1 antiserum; assay type: binding; details: antiserum raised against bovine serum albumin linked to 2-hydroxyestrone 17-carboxymethyloxime
# Excerpt: Antibodies to 16α-OHE1, E2 and E3 were raised as described previously (Fishman, J., et al., SCIENCE, 204:1089-1091 (1979); Ikegawa, S., et al., J. STEROID BIOCHEM., 18:329-332 (1983)), while the anti-2OHE1 antiserum was a gift of Dr. Kanbegawa (Teikyo University, Japan) and was raised against bovine serum albumin linked to 2-hydroxyestrone 17-carboxymethyloxime. Cross-reactivities of the 2OHE1 antiserum with E1, E2 and E3, 16αOHE1, 2MeOE1, and 2-hydroxyestradiol (2OHE2) were 1.3%, 0.6%, 0.01%, 0.03%, 0.11% and 1.7%, respectively.
# Each urine sample (1 or 2 mL) contained approximately 3000 dpm of […] steroid used to determine recovery, and was applied to a C18 Sep-pak cartridge followed by elution with 5 mL of methanol. The eluate was dried in vacuo and hydrolyzed with Glusulase for 12 h at 37°C. The hydrolyzed steroids were again extracted on a C18 Sep-pak cartridge and eluted with 5 mL of methanol. Aliquots of this final eluate were taken for determination of recovery (averaging 90-95%) and duplicate radioimmunoassay (100 µL). In order to prevent auto-oxidation of catecholestrogens, ascorbic acid (1%) was used in all stages of the assay. Radiolabeled steroids and antisera were incubated with the specimens overnight at 4°C, and radioactivity was measured with a Packard model 3000 scintillation counter. Estrogen levels are expressed relative to urinary creatinine concentration. Statistical analysis was performed with an unpaired t-test. Unless otherwise specified, all values are reported as means ± SEM.
# [2] = tested on: cytochrome P-450-dependent metabolism of estradiol; details: 800 mg per dose twice daily oral for two weeks; nine normal male volunteers; P<0.04; cited from earlier work
# [3] = tested on: 16α-hydroxylation of estradiol; details: 800 mg per dose twice daily oral for two weeks; nine normal male volunteers; radiometric analysis; cited from earlier work
# [4] = tested on: cytochrome P-450-dependent metabolism of estradiol; details: cited from earlier work
# [5] = tested on: hepatic estradiol 2-hydroxylation; experiment: Extent of estradiol 2-hydroxylation after indole-3-carbinol administration; assay type: in vivo; details: 500 mg daily for one week, humans
# Protocol: (§1) In this study by two of the inventors herein, which study was just recently published, certain dietary indoles were examined for their induction of hepatic estradiol 2-hydroxylation. In particular, indole-3-carbinol (I3C) was administered to humans at a rate of 500 mg daily for one week.
# [6] = tested on: estradiol 2-hydroxylation; experiment: Urinary estrogen metabolites and ratios before and after I3C or high fiber diet; assay type: in vivo, humans
# Protocol: as §1
# In conjunction with this study, certain comparative data were developed between the administration of I3C to women and men, and the administration of a high fiber diet to women. The comparative results are presented in Table 6A, B and C below, wherein Table 6A represents the data from women taking I3C, Table 6B represents the data respecting the women who were placed on a high fiber diet, and Table 6C represents the data gathered from the sample of men who were administered I3C.
# [7] = tested on: estradiol hydroxylation at both the C-2 and C-16α sites; details: cited from earlier work
# [8] = after thyroxine administration versus baseline
structure (smiles),measurement,setting,value
C[C@]12CC[C@@H]3c4cc(O)c(O)cc4CC[C@H]3[C@@H]1CC[C@@H]2O [2-hydroxyestradiol],Cross-reactivities of the 2OHE1 antiserum,[1],1.7%
"COc1cc2c(cc1O)CC[C@@H]1[C@@H]2CC[C@]2(C)C(=O)CC[C@@H]12 [2MeOE1, 2-methoxyestrone]",Cross-reactivities of the 2OHE1 antiserum,[1],0.11%
"C[C@]12CC[C@@H]3c4ccc(O)cc4CC[C@H]3[C@@H]1C[C@@H](O)C2=O [16αOHE1, 16α-hydroxyestrone]",Cross-reactivities of the 2OHE1 antiserum,[1],0.03%
CN/C(=N/CCSCc1nc[nH]c1C)NC#N [Cimetidine],serum concentration of estradiol increased,[2],approximately 20%
same,16α-hydroxylation of estradiol,[3],unaffected
same,urinary excretion of 2-hydroxyestrone decreased,"[4]; 800 mg per dose twice daily oral for two weeks, nine normal male volunteers, P<0.0002",approximately 25%
same,Urinary Excretion of Total estrogens,"[4]; After Cimetidine 800 mg orally twice a day for 14 days, sum of estrone, estradiol, estriol, 16α-hydroxyestrone, 2-hydroxyestrone, n=9, before 10.7 ± 1.1, P 0.02",9.9 ± 0.9 nmol/nmol of creatinine
same,Urinary Excretion of 16α-Hydroxyestrone,"[4]; After Cimetidine 800 mg orally twice a day for 14 days, timed overnight urine, mean ± SEM, n=9, before 1.08 ± 0.11, NS",1.05 ± 0.08 nmol/nmol of creatinine
same,Urinary Excretion of Estradiol,"[4]; After Cimetidine 800 mg orally twice a day for 14 days, timed overnight urine, mean ± SEM, n=9, before 1.28 ± 0.15, NS",1.25 ± 0.10 nmol/nmol of creatinine
same,Urinary Excretion of 2-Hydroxyestrone,"[4]; After Cimetidine 800 mg orally twice a day for 14 days, timed overnight urine, mean ± SEM, n=9, before 1.71 ± 0.20, P 0.0002",1.27 ± 0.19 nmol/nmol of creatinine
same,Urinary Excretion of Estrone,"[4]; After Cimetidine 800 mg orally twice a day for 14 days, timed overnight urine, mean ± SEM, n=9, before 3.80 ± 0.34, P 0.03",3.32 ± 0.26 nmol/nmol of creatinine
same,ratio of 2-hydroxyestrone to estriol reduced,[4]; after Cimetidine treatment,approximately 40%
same,2-Hydroxyestrone/estriol,"[4]; urinary ratio After Cimetidine 800 mg orally twice a day for 14 days, mean ± SEM, n=9, before 0.74 ± 0.18, P 0.015",0.47 ± 0.10
"C[C@]12CC[C@@H]3c4ccc(O)cc4CC[C@H]3[C@@H]1C[C@@H](O)[C@@H]2O [E3, estriol]",Cross-reactivities of the 2OHE1 antiserum,[1],0.01%
"OCc1c[nH]c2ccccc12 [I3C, indole-3-carbinol]",extent of estradiol 2-hydroxylation,[5],significantly increased
same,[2OHE1]/[E3],"[6]; Men Taking I3C (N=7), Post, Pre 1.06 ± 0.11, P <0.02",2.04 ± 0.35
same,[E3],"[6]; Men Taking I3C (N=7), Post, Pre 6.4 ± 1.8, P <0.006",4.2 ± 1.3
same,[2OHE1],"[6]; Men Taking I3C (N=7), Post, Pre 6.6 ± 2.3, NS",8.2 ± 3.5
same,[E1],"[6]; Men Taking I3C (N=7), Post, Pre 8.4 ± 1.8, NS",8.9 ± 2.3
same,[E3]/[E1],"[6]; Women (N=5), Post, Pre 1.04 ± 0.20, NS",0.74 ± 0.11
same,[2OHE1]/[E1],"[6]; Women (N=5), Post, Pre 1.15 ± 0.24, P <0.05",1.53 ± 0.20
same,[2OHE1]/[E3],"[6]; Women (N=5), Post, Pre 1.27 ± 0.30, P <0.005",2.35 ± 0.50
same,induction of estradiol 2-hydroxylation,[6]; conclusion from Tables 6A-C,potent inducers
"N[C@@H](Cc1cc(I)c(Oc2cc(I)c(O)c(I)c2)c(I)c1)C(=O)O [Thyroxine, thyroxine]",Urinary 16αOHE1,"[7]; Post: following two weeks of thyroxine (4.3 mcg/kg/d), mean ± SEM, Pre 2.07 ± 0.24, NS",2.24 ± 0.17 µg creatinine
same,Urinary E2,"[7]; Post: following two weeks of thyroxine (4.3 mcg/kg/d), mean ± SEM, Pre 2.78 ± 0.23, NS",3.03 ± 0.27 µg creatinine
same,Urinary 2OHE1,"[7]; Post: following two weeks of thyroxine (4.3 mcg/kg/d), mean ± SEM, Pre 2.88 ± 0.32, P 0.01",5.30 ± 0.85 µg creatinine
same,Urinary E3,"[7]; Post: following two weeks of thyroxine (4.3 mcg/kg/d), mean ± SEM, Pre 5.84 ± 0.88, NS",5.37 ± 0.78 µg creatinine
same,Urinary E1,"[7]; Post: following two weeks of thyroxine (4.3 mcg/kg/d), mean ± SEM, Pre 7.36 ± 0.39, NS",7.30 ± 0.74 µg creatinine
same,Urinary Total estrogens,"[7]; Post: following two weeks of thyroxine (4.3 mcg/kg/d), mean ± SEM, Pre 20.93 ± 1.58, NS",23.24 ± 2.41. µg creatinine
same,index [2OHE1]/[E3] change after thyroxine administration,[7]; [8],nearly doubled
same,urinary 2-hydroxyestrone after thyroxine administration,[7]; [8],significantly greater
same,[2OHE1]/[E3],"[7]; urinary ratio, Post: following two weeks of thyroxine (4.3 mcg/kg/d), Pre 0.56 ± 0.09, P 0.01",1.05 ± 0.14
